Here are results for six molecules from patent US9486506B2 (Novo Nordisk A/S, priority 2011, dated 2016).

SMILES strings stand for the structures. Numbered stars: 1 amine (or outer) side, 2 acyl side, 3 side chain; on linkers, the order of the positions; unused ones are H or OH. Side chains are listed from the residue outwards. Peptide text beside a SMILES is read from it. * marks the point of attachment. C18 diacid = O=C(O)CCCCCCCCCCCCCCCCC(=O)*; C16 diacid = O=C(O)CCCCCCCCCCCCCCC(=O)*; γGlu = O=C(O)[C@H](CCC(=O)[*:2])N[*:1]; AEEA = NCCOCCOCC(=O)O

A short description of series [1]: Assay (X) Chemical stability assessment by RP-UPLC. It is filed as physicochemical. The following applies: pH 8.15, 14 days at 37° C. vs 5° C., 333 μM.
The target in another series is T1, glucagon receptor (Homo sapiens, UniProt P47871).
T1 construct: expressed in transfected cells
T1 sequence (P47871 26-477): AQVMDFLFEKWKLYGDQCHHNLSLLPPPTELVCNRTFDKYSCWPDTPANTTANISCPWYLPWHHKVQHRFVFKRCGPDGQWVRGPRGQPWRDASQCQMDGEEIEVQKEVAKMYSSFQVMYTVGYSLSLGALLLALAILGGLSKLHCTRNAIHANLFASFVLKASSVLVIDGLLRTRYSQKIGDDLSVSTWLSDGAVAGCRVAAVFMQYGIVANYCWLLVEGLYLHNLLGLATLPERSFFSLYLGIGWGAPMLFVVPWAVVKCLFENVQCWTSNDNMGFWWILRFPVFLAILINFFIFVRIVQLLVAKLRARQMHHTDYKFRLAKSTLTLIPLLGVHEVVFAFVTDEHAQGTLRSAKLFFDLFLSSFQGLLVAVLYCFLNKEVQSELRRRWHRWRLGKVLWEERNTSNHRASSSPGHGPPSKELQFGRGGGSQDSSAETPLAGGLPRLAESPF
The series can be described thus: Assay (I) Glucagon activity (cAMP biosensor, FLIPR). The format is cell-based.

As a reminder, the EC50 is the concentration needed to bring the measured effect to its halfway point. Low values mean higher potency in that assay, high ones lower potency in that assay. Take `CC(C)C[C@H](NC(=O)[C@H](Cc1ccc(O)cc1)NC(=O)[C@H](CCCNC(=N)N)NC(=O)[C@H](CO)NC(=O)[C@H](Cc1ccc(O)cc1)NC(=O)[C@H](CC(=O)O)NC(=O)[C@H](CO)NC(=O)[C@@H](NC(=O)[C@H](Cc1ccccc1)NC(=O)[C@@H](NC(=O)CNC(=O)[C@H](CCC(N)=O)NC(=O)[C@H](CO)NC(=O)[C@@H](N)Cc1c[nH]cn1)[C@@H](C)O)[C@@H](C)O)C(=O)N[C@@H](CC(=O)O)C(=O)N[C@@H](C)C(=O)N[C@@H](CCCNC(=N)N)C(=O)N[C@@H](CCCNC(=N)N)C(=O)N[C@@H](C)C(=O)N[C@@H](CCC(N)=O)C(=O)N[C@@H](CC(=O)O)C(=O)N[C@@H](Cc1ccccc1)C(=O)N[C@H](C(=O)N[C@@H](CCCCNC(=O)CC[C@H](NC(=O)CC[C@H](NC(=O)COCCOCCNC(=O)COCCOCCNC(=O)CC[C@H](NC(=O)CCCCCCCCCCCCCCC(=O)O)C(=O)O)C(=O)O)C(=O)O)C(=O)N[C@@H](Cc1c[nH]c2ccccc12)C(=O)N[C@@H](CC(C)C)C(=O)N[C@@H](CC(C)C)C(=O)N[C@@H](CO)C(=O)N[C@H](C(=O)O)[C@@H](C)O)C(C)C` [Example 84, N^ε24-[(4S)-4-carboxy-4-[[(4S)-4-carboxy-4-[[2-[2-[2-[[2-[2-[2-[[(4S)-4-carboxy-4-(15-carboxypentadecanoylamino)butanoyl]amino]ethoxy]ethoxy]acetyl]amino]ethoxy]ethoxy]acetyl]amino]butanoyl]amino]butanoyl]-[Arg12,Ala16,Lys24,Leu27,Ser28]-Glucagon] (H-HSQGTFTSDYSRYLDARRAQDFVK([γGlu-γGlu-AEEA-AEEA-γGlu-C16 diacid])WLLST-OH): in series [1], the “Chemical stability [Purity loss/14 days 37 C.]” value was found to be 10.7%. Besides, on glucagon receptor, a half-maximal effect (EC50) was put at 22 pM.
In the case of `CC(C)C[C@H](NC(=O)[C@H](CC(=O)O)NC(=O)[C@H](CC(C)C)NC(=O)[C@H](Cc1ccc(O)cc1)NC(=O)[C@H](CCCCN)NC(=O)[C@H](CO)NC(=O)[C@H](Cc1ccc(O)cc1)NC(=O)[C@H](CC(=O)O)NC(=O)[C@H](CO)NC(=O)[C@@H](NC(=O)[C@H](Cc1ccccc1)NC(=O)[C@@H](NC(=O)CNC(=O)[C@H](CCC(N)=O)NC(=O)[C@H](CO)NC(=O)[C@@H](N)Cc1c[nH]cn1)[C@@H](C)O)[C@@H](C)O)C(=O)N[C@@H](CCCNC(=N)N)C(=O)N[C@@H](CCCNC(=N)N)C(=O)N[C@@H](C)C(=O)N[C@@H](CCC(N)=O)C(=O)N[C@@H](CC(=O)O)C(=O)N[C@@H](Cc1ccccc1)C(=O)N[C@H](C(=O)N[C@@H](CCCCNC(=O)CC[C@H](NC(=O)CC[C@H](NC(=O)COCCOCCNC(=O)COCCOCCNC(=O)CC[C@H](NC(=O)CCCCCCCCCCCCCCC(=O)O)C(=O)O)C(=O)O)C(=O)O)C(=O)N[C@@H](Cc1c[nH]c2ccccc12)C(=O)N[C@@H](CC(C)C)C(=O)N[C@@H](CC(C)C)C(=O)N[C@@H](CO)C(=O)N[C@H](C(=O)O)[C@@H](C)O)C(C)C` [Example 85, N^ε24-[(4S)-4-carboxy-4-[[(4S)-4-carboxy-4-[[2-[2-[2-[[2-[2-[2-[[(4S)-4-carboxy-4-(15-carboxypentadecanoylamino)butanoyl]amino]ethoxy]ethoxy]acetyl]amino]ethoxy]ethoxy]acetyl]amino]butanoyl]amino]butanoyl]-[Leu16,Lys24,Leu27,Ser28]-Glucagon], the “Chemical stability [Purity loss/14 days 37 C.]” value in series [1] amounted to 7.4%. On glucagon receptor, the EC50 was determined as 39 pM.
For `CC(C)C[C@H](NC(=O)[C@H](CC(=O)O)NC(=O)[C@H](CC(C)C)NC(=O)[C@H](Cc1ccc(O)cc1)NC(=O)[C@H](CCCNC(=N)N)NC(=O)[C@H](CO)NC(=O)[C@H](Cc1ccc(O)cc1)NC(=O)[C@H](CC(=O)O)NC(=O)[C@H](CO)NC(=O)[C@@H](NC(=O)[C@H](Cc1ccccc1)NC(=O)[C@@H](NC(=O)CNC(=O)[C@H](CCC(N)=O)NC(=O)[C@H](CO)NC(=O)[C@@H](N)Cc1c[nH]cn1)[C@@H](C)O)[C@@H](C)O)C(=O)N[C@@H](CCCNC(=N)N)C(=O)N[C@@H](CCCNC(=N)N)C(=O)N[C@@H](C)C(=O)N[C@@H](CCC(N)=O)C(=O)N[C@@H](CC(=O)O)C(=O)N[C@@H](Cc1ccccc1)C(=O)N[C@H](C(=O)N[C@@H](CCCCNC(=O)CC[C@H](NC(=O)CC[C@H](NC(=O)CC[C@H](NC(=O)CC[C@H](NC(=O)CCCCCCCCCCCCCCCCC(=O)O)C(=O)O)C(=O)O)C(=O)O)C(=O)O)C(=O)N[C@@H](Cc1c[nH]c2ccccc12)C(=O)N[C@@H](CC(C)C)C(=O)N[C@@H](CC(C)C)C(=O)N[C@@H](CO)C(=O)N[C@H](C(=O)O)[C@@H](C)O)C(C)C` [Example 86, N^ε24-[(4S)-4-carboxy-4-[[(4S)-4-carboxy-4-[[(4S)-4-carboxy-4-[[(4S)-4-carboxy-4-(17-carboxyheptadecanoylamino)butanoyl]amino]butanoyl]amino]butanoyl]amino]butanoyl]-[Arg12,Leu16,Lys24,Leu27,Ser28]-Glucagon] (H-HSQGTFTSDYSRYLDLRRAQDFVK([γGlu-γGlu-γGlu-γGlu-C18 diacid])WLLST-OH), the “Chemical stability [Purity loss/14 days 37 C.]” value in series [1] stood at 3.7%. For the same molecule, the EC50 on glucagon receptor was 343 pM.
Consider `CC(C)C[C@H](NC(=O)[C@H](CC(C)C)NC(=O)[C@H](Cc1c[nH]c2ccccc12)NC(=O)[C@H](CCCCNC(=O)CC[C@H](NC(=O)CC[C@H](NC(=O)COCCOCCNC(=O)COCCOCCNC(=O)CC[C@H](NC(=O)CCCCCCCCCCCCCCCCC(=O)O)C(=O)O)C(=O)O)C(=O)O)NC(=O)[C@@H](NC(=O)[C@H](Cc1ccccc1)NC(=O)[C@H](CC(=O)O)NC(=O)[C@H](CCC(N)=O)NC(=O)[C@H](C)NC(=O)[C@H](CCCNC(=N)N)NC(=O)[C@H](CCCNC(=N)N)NC(=O)[C@H](CC(C)C)NC(=O)[C@H](CC(=O)O)NC(=O)[C@H](CC(C)C)NC(=O)[C@H](Cc1ccc(O)cc1)NC(=O)[C@H](CCCNC(=N)N)NC(=O)[C@H](CO)NC(=O)[C@H](Cc1ccc(O)cc1)NC(=O)[C@H](CC(=O)O)NC(=O)[C@H](CO)NC(=O)[C@@H](NC(=O)[C@H](Cc1ccccc1)NC(=O)[C@@H](NC(=O)CNC(=O)[C@H](CCC(N)=O)NC(=O)[C@H](CO)NC(=O)[C@@H](N)Cc1c[nH]cn1)[C@@H](C)O)[C@@H](C)O)C(C)C)C(=O)N[C@@H](C)C(=O)N[C@H](C(=O)O)[C@@H](C)O` [Example 87, N^ε24-[(4S)-4-carboxy-4-[[(4S)-4-carboxy-4-[[2-[2-[2-[[2-[2-[2-[[(4S)-4-carboxy-4-(17-carboxyheptadecanoylamino)butanoyl]amino]ethoxy]ethoxy]acetyl]amino]ethoxy]ethoxy]acetyl]amino]butanoyl]amino]butanoyl]-[Arg12,Leu16,Lys24,Leu27,Ala28]-Glucagon] (H-HSQGTFTSDYSRYLDLRRAQDFVK([γGlu-γGlu-AEEA-AEEA-γGlu-C18 diacid])WLLAT-OH), for which the “Chemical stability [Purity loss/14 days 37 C.]” value in series [1] stood at 5.8%. Besides, the EC50 on glucagon receptor amounted to 253 pM.
On the same counts, the results for `CC(C)C[C@H](NC(=O)[C@H](CC(C)C)NC(=O)[C@H](Cc1c[nH]c2ccccc12)NC(=O)[C@H](CCCCNC(=O)CC[C@H](NC(=O)CC[C@H](NC(=O)COCCOCCNC(=O)COCCOCCNC(=O)CC[C@H](NC(=O)CCCCCCCCCCCCCCCCC(=O)O)C(=O)O)C(=O)O)C(=O)O)NC(=O)[C@@H](NC(=O)[C@H](Cc1ccccc1)NC(=O)[C@H](CC(=O)O)NC(=O)[C@H](CCC(N)=O)NC(=O)[C@H](C)NC(=O)[C@H](CCCNC(=N)N)NC(=O)[C@H](CCCNC(=N)N)NC(=O)[C@H](CC(C)C)NC(=O)[C@H](CC(=O)O)NC(=O)[C@H](CC(C)C)NC(=O)[C@H](Cc1ccc(O)cc1)NC(=O)[C@H](CCCNC(=N)N)NC(=O)[C@H](CO)NC(=O)[C@H](Cc1ccc(O)cc1)NC(=O)[C@H](CC(=O)O)NC(=O)[C@H](CO)NC(=O)[C@@H](NC(=O)[C@H](Cc1ccccc1)NC(=O)[C@@H](NC(=O)CNC(=O)[C@H](CCC(N)=O)NC(=O)[C@H](CO)NC(=O)[C@@H](N)Cc1c[nH]cn1)[C@@H](C)O)[C@@H](C)O)C(C)C)C(=O)NCC(=O)N[C@H](C(=O)O)[C@@H](C)O` [Example 88, N^ε24-[(4S)-4-carboxy-4-[[(4S)-4-carboxy-4-[[2-[2-[2-[[2-[2-[2-[[(4S)-4-carboxy-4-(17-carboxyheptadecanoylamino)butanoyl]amino]ethoxy]ethoxy]acetyl]amino]ethoxy]ethoxy]acetyl]amino]butanoyl]amino]butanoyl]-[Arg12,Leu16,Lys24,Leu27,Gly28]-Glucagon] (H-HSQGTFTSDYSRYLDLRRAQDFVK([γGlu-γGlu-AEEA-AEEA-γGlu-C18 diacid])WLLGT-OH) are 4.7% and 470 pM.
On to `CC(C)C[C@H](NC(=O)[C@H](CC(C)C)NC(=O)[C@H](Cc1c[nH]c2ccccc12)NC(=O)[C@H](CCCCNC(=O)CC[C@H](NC(=O)CC[C@H](NC(=O)COCCOCCNC(=O)COCCOCCNC(=O)CC[C@H](NC(=O)CCCCCCCCCCCCCCC(=O)O)C(=O)O)C(=O)O)C(=O)O)NC(=O)[C@@H](NC(=O)[C@H](Cc1ccccc1)NC(=O)[C@H](CC(=O)O)NC(=O)[C@H](CCC(N)=O)NC(=O)[C@H](C)NC(=O)[C@H](CCCNC(=N)N)NC(=O)[C@H](CCCNC(=N)N)NC(=O)[C@H](CC(C)C)NC(=O)[C@H](CC(=O)O)NC(=O)[C@H](CC(C)C)NC(=O)[C@H](Cc1ccc(O)cc1)NC(=O)[C@H](CCCNC(=N)N)NC(=O)[C@H](CO)NC(=O)[C@H](Cc1ccc(O)cc1)NC(=O)[C@H](CC(=O)O)NC(=O)[C@H](CO)NC(=O)[C@@H](NC(=O)[C@H](Cc1ccccc1)NC(=O)[C@@H](NC(=O)CNC(=O)[C@H](CCC(N)=O)NC(=O)[C@H](CO)NC(=O)[C@@H](N)Cc1c[nH]cn1)[C@@H](C)O)[C@@H](C)O)C(C)C)C(=O)N[C@@H](C)C(=O)N[C@H](C(=O)O)[C@@H](C)O` [Example 89, N^ε24-[(4S)-4-carboxy-4-[[(4S)-4-carboxy-4-[[2-[2-[2-[[2-[2-[2-[[(4S)-4-carboxy-4-(15-carboxypentadecanoylamino)butanoyl]amino]ethoxy]ethoxy]acetyl]amino]ethoxy]ethoxy]acetyl]amino]butanoyl]amino]butanoyl]-[Arg12,Leu16,Lys24,Leu27,Ala28]-Glucagon] (H-HSQGTFTSDYSRYLDLRRAQDFVK([γGlu-γGlu-AEEA-AEEA-γGlu-C16 diacid])WLLAT-OH), for which the “Chemical stability [Purity loss/14 days 37 C.]” value in series [1] stood at 6.8%. The molecule also came in with a half-maximal effective concentration (EC50) on glucagon receptor of 64 pM.
